Data from patent publication US12637468B2, “Substituted [1,2,4]triazolo[4,3-b]pyridazines as GABAA receptor modulators” (SHANGHAI SIMR BIOTECHNOLOGY CO., LTD., priority 2019, dated 2026).

Each molecule was assayed against T1, α5-GABAA receptor (Homo sapiens, UniProt P18507+P31644) (assay: Cell-level screening: whole cell patch clamp, inverse agonist efficacy on α5-GABAA receptor expressed in HEK293). Conditions: drug 100 nM, GABA 0.05 μM, HEK293 expressing α5, β3 and γ2 subunits, clamped at −60 mV; read-out: Compound inverse agonist efficacy %.
T1 construct: expressed in transfected cells; host or cells: HEK293, monoclonal stably transfected line
T1 sequence (P31644 32-462): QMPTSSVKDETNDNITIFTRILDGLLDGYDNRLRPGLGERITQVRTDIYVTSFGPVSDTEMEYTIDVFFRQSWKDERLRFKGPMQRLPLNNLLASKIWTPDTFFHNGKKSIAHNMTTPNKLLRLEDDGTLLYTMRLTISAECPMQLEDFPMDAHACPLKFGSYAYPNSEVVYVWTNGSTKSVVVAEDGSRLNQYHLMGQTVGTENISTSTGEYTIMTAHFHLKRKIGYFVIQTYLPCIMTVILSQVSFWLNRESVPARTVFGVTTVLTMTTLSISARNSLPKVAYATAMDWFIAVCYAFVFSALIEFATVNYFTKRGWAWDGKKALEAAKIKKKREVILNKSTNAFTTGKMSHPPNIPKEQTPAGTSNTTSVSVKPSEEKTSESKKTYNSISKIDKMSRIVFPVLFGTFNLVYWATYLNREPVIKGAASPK
T1 sequence (P28472 26-473 partner): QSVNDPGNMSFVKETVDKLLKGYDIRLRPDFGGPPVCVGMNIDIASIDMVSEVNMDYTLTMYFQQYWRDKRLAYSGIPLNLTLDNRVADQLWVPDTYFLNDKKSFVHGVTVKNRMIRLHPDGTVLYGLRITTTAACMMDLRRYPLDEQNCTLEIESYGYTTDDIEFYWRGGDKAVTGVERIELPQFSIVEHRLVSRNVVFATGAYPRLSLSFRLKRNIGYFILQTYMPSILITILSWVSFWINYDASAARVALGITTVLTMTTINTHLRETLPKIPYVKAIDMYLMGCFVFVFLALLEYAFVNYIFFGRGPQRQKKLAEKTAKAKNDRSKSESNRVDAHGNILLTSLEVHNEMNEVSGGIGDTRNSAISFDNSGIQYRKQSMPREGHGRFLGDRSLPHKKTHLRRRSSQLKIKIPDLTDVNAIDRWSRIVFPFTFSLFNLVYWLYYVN
T1 sequence (P18507 40-467 isoform P18507-1 limits assumed): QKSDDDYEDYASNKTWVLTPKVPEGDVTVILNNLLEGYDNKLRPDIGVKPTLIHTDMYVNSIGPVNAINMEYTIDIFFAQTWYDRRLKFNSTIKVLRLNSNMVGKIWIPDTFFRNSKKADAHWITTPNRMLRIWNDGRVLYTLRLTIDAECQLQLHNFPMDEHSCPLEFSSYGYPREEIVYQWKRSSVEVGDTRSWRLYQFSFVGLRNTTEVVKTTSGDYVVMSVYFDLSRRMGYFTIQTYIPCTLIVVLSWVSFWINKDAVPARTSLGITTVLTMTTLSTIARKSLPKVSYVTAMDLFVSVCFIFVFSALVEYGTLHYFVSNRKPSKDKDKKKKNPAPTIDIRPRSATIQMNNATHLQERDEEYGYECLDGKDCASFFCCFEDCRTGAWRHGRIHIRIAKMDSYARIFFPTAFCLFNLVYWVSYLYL
Format: cell-based
Procedure: The inventors used electrophysiological methods to determine the inverse agonist efficacy of the drugs to be tested on the α5-GABAA receptor. The detailed methods are as follows:
Different subunits of GABAA receptors were expressed in human […] cell line 293 (HEK293) cell line. The cells were cultured in a culture medium and used as a cell model for screening pain inhibiting drugs. The α, β and γ subunits are necessary to form complete functional GABAA receptors. In this embodiment, the inventors had established the following cell model: α5 subunit (see GenBank Accession No. NM_000810.3 for protein sequences), β3 subunit (see GenBank Accession No. NM_000814.5 for protein sequences) and γ2 subunit (see GenBank Accession No. NM_000816.3 for protein sequences) were expressed in HEK293 cell line at the same time, followed by screening the monoclonal cell line. This cell line contained α5-GABAA receptor and had complete GABAA receptor function.
The monoclonal stably transfected HEK-293 cells expressing α5-GABAA receptor were cultured in 10 cm culture dishes and passaged when the cells grew to 80%-90%. During passaging, the culture medium was aspirated first, then 3 mL of DPBS phosphate buffer salt (Gibco™) was added to the culture dishes, and the culture dishes were shaken slightly, and DPBS was aspirated. 1 mL of trypsin (TrypLE Express, Gibco™) was added thereto, and the cells were digested at 37° C. for 1-2 minutes. Then 3 mL of complete medium (DMEM+10% FBS (Gibco™)) was added and the cells at the bottom of the culture dishes were dispersed. The cell suspension were transferred to a 15 mL centrifugal tube (Corning) and then centrifuged at 200 g for 3 minutes. The supernatant was discarded, 4 mL of complete medium was added, and the cells were gently blown and resuspended for use. If cell passaging was performed, the cell suspension was diluted at a ratio of 1:5 or 1:10. If cells for electrophysiology use were prepared, the cell suspension was diluted in a ratio of 1:12, then added into a 24-well dish (Corning™) in which glass slides were placed and pretreated with Poly-D-Lysine, and the cells were tested after being attached to the walls. The culture time of cells for electrophysiology use was no more than 48 hours.
Drug concentration setting: the final drug concentration used in drug screening was 100 nM, and the GABA concentration range was 0.05 μM. The final drug concentrations used in the dose-inversal agonistic efficiency (%) test were 0.3 nM, 3 nM, 10 nM, 30 nM, 100 nM and 300 nM. The whole cell patch clamp technique was used in electrophysiological experiments, which could refer to the literature (I. Lecker, Y. Yin, D. S. Wang and B. A. Orser, (2013) Potentiation of GABAA receptor activity by volatile anaesthetics is reduced by α5-GABAA receptor-preferring inverse agonists, British Journal of Anaesthesia 110 (S1): i73-i81). The components of extracellular solution (ECS) for electrophysiology use were as follows: 150 mM NaCl, 5 mM KCl, 2.5 mM CaCl2), 1 mM MgCl2, 10 mM HEPES and 10 mM glucose (pH 7.4); electrode internal solutions for electrophysiology use were as follows: 140 mM CsCl, 11 mM EGTA, 10 mM HEPES, 2 mM CaCl2), 1 mM MgCl2, 4 mM MgATP, 2 mM TEA (pH 7.3). The signal acquisition used an EPC-10 amplifier and the PatchMaster software (HEKA). The recording electrode was drawn using borosilicate glass, and the electrode resistance was 4 to 6 MΩ. The ALA-VC3-8PP™ system was used for extracellular administration. Separate cells that grew independently was selected for recording. During recording, the cell membrane potential was clamped at −60 mV. During experiment, an extracellular solution was applied to the cells for about 20 seconds. When the baseline reached to a stable state, the extracellular solution was switched to GABA. Then the current induced by GABA could be detected. […]

| SMILES | inhibition at 0.1 µM [%] |
| --- | --- |
| COc1cc2nnc(-c3cc(C)on3)n2nc1OCc1cccc(Cl)n1 [Embodiment 18] | 23 |
| COc1cc2nnc(-c3cc(C)on3)n2nc1OCc1ccc2c(n1)c(C)nn2C1COC1 [Embodiment 242] | 54.7 |
| COc1cc2nnc(-c3cc(C)on3)n2nc1OCc1ccc(OCC2CCCO2)cn1 (stereo not drawn) [Embodiment 106] | 60.4 |
| COc1cc2nnc(-c3cc(C)on3)n2nc1OCc1ccc(C2CCNC2)cn1 (stereo not drawn) [Embodiment 96] | 38.8 |
| COc1cc2nnc(-c3cc(C)on3)n2nc1OCc1ccc2ccccc2n1 [Embodiment 138] | 42.9 |
| COc1cc2nnc(-c3cc(C)on3)n2nc1OCc1cccc(N(C)C)n1 [Embodiment 3] | 37.1 |
| COc1cc2nnc(-c3cc(C)on3)n2nc1OCc1ccc(OCC2CCOCC2)nn1 [Embodiment 171] | 53.1 |
| COc1cc2nnc(-c3cc(C)on3)n2nc1OCc1ccc2c(n1)CCN(Cc1nnc(C)o1)C2 [Embodiment 188] | 52.4 |
| COCCOc1nccc2nc(COc3nn4c(-c5cc(C)on5)nnc4cc3OC)ccc12 [Embodiment 146] | 33.4 |
| COc1cc2nnc(-c3cc(C)on3)n2nc1OCc1ccc2nn(CCc3ccccc3)cc2n1 [Embodiment 230, 3-(7-Methoxy-6-(((2-phenethyl-2H-pyrazolo[4,3-b]pyridin-5-yl]methoxy])-[1,2,4]triazolo[4,3-b]pyridazin-3-yl)-5-methylisoxazole] | 57.2 |
| COc1nccc(COc2nn3c(-c4cc(C)on4)nnc3cc2OC)n1 [Embodiment 72] | 54.3 |
| COc1cc2nnc(-c3cc(C)on3)n2nc1OCc1cccc(C2(F)CNC2)n1 [Embodiment 70] | 31.7 |
| COc1cc2nnc(-c3cc(C)on3)n2nc1OCc1ccc2c(n1)CCN(c1ccccc1)C2 [Embodiment 87, 3-(7-Methoxy-6-((6-phenyl-5,6,7,8-tetrahydro-1,6-naphthalen-2-yl)methoxy)-[1,2,4]triazolo[4,3-b]pyridazin-3-yl)-5-methylisoxazole] | 39.7 |
| COc1cc2nnc(-c3cc(C)on3)n2nc1OCc1ccc2c(n1)CCN(C1CC(C#N)C1)C2 (stereo not drawn) [Embodiment 195] | 45.8 |
| COc1cc2nnc(-c3cc(C)on3)n2nc1OCc1cnc(OCC2CCCO2)cn1 (stereo not drawn) [Embodiment 178] | 36.7 |
| COc1cc2nnc(-c3cc(C)on3)n2nc1OCc1ccc2c(n1)CCN(C(C)C)C2 [Embodiment 83] | 39.9 |
| COc1cc2nnc(-c3cc(C)on3)n2nc1OCc1ccc2cnn(C)c2n1 [Embodiment 220] | 51.8 |
| COc1cc2nnc(-c3cc(C)on3)n2nc1OCc1ccn2nccc2n1 [Embodiment 64] | 40 |
| COc1cc2nnc(-c3cc(C)on3)n2nc1OCc1ccc2c(n1)N(C)CCO2 [Embodiment 149] | 71.7 |
| COCCn1ccc2ccc(COc3nn4c(-c5cc(C)on5)nnc4cc3OC)nc21 [Embodiment 92] | 52.8 |
| COc1cc2nnc(-c3cc(C)on3)n2nc1OCc1cccc(C#N)n1 [Embodiment 40] | 39 |
| COc1cc2nnc(-c3cc(C)on3)n2nc1OCc1ccc2c(n1)CNC2=O [Embodiment 89] | 47.2 |
| COc1cc2nnc(-c3cc(C)on3)n2nc1OCc1ccc2c(cnn2C(C)C)n1 [Embodiment 236] | 54.8 |
| COc1cc2nnc(-c3cc(C)on3)n2nc1OCc1cc2c(cn1)OCCO2 [Embodiment 121] | 37.4 |
| COc1cc2nnc(-c3cc(C)on3)n2nc1OCc1ccc2c(n1)CCN(C(=O)C1CC1)C2 [Embodiment 81] | 45.9 |
| C=CC(=O)N1CCc2nc(COc3nn4c(-c5cc(C)on5)nnc4cc3OC)ccc2C1 [Embodiment 108, 1-(2-(((7-Methoxy-3-(5-methylisoxazol-3-yl)-[1,2,4]triazolo[4,3-b]pyridazin-6-yl)oxy)methyl)-7,8-dihydro-1,6-naphthyridin-6(5H)-yl)prop-2-en-1-one] | 54.9 |

| SMILES | inhibition at 0.1 µM [%] |
| --- | --- |
| COc1cc2nnc(-c3cc(C)on3)n2nc1OCc1ccc(C2(F)CCCNC2)cn1 (stereo not drawn) [Embodiment 95] | 48.1 |
| COc1cc2nnc(-c3cc(C)on3)n2nc1OCc1ccc2c(cnn2C)n1 [Embodiment 73] | 34.5 |
| COc1cc2nnc(-c3cc(C)on3)n2nc1OCc1ccc(OC(F)F)cn1 [Embodiment 24] | 35 |
| COc1cc2nnc(-c3cc(C)on3)n2nc1OCc1ccc2c(n1)CCN(CC(F)(F)F)C2 [Embodiment 77] | 44.8 |
| CCn1cccc(COc2nn3c(-c4cc(C)on4)nnc3cc2OC)c1=O [Embodiment 76] | 41.6 |
| COCCCOc1nnc(COc2nn3c(-c4cc(C)on4)nnc3cc2OC)cc1C [Embodiment 155] | 50.1 |
| COc1cc2nnc(-c3cc(C)on3)n2nc1OCc1ccc2c(n1)CCN(C1CC(F)(F)C1)C2 [Embodiment 184] | 33.9 |
| COc1ccnc(COc2nn3c(-c4cc(C)on4)nnc3cc2OC)c1 [Embodiment 51] | 46.2 |
| COCCOc1ccnc(COc2nn3c(-c4cc(C)on4)nnc3cc2OC)c1 [Embodiment 10] | 37.1 |
| CCc1cn2nc(COc3nn4c(-c5cc(C)on5)nnc4cc3OC)ccc2n1 [Embodiment 176] | 50.1 |
| COc1cc2nnc(-c3cc(C)on3)n2nc1OCc1ccc2cnccc2n1 [Embodiment 140] | 49.3 |
| COc1cc2nnc(-c3cc(C)on3)n2nc1OCc1ccc(C(F)(F)F)cn1 [Embodiment 59] | 35.7 |
| COCCOc1ccc(COc2nn3c(-c4noc(C)n4)nnc3cc2OC)nc1 [Embodiment 132] | 57.3 |
| COc1cc2nnc(-c3cc(C)on3)n2nc1OCc1ccc2c(n1)CCN(C)C2=O [Embodiment 142] | 50.2 |
| COc1cc2nnc(-c3cc(C)on3)n2nc1OCc1ccc2ncn(C3CCOC3)c2n1 (stereo not drawn) [Embodiment 246] | 46.6 |
| COc1cc2nnc(-c3cc(C)on3)n2nc1OCc1ccc2c(n1)CCN(S(C)(=O)=O)C2 [Embodiment 209] | 48.8 |
| COc1cnc(COc2nn3c(-c4cc(C)on4)nnc3cc2OC)cn1 [Embodiment 44] | 44.8 |
| COc1cc2nnc(-c3cc(C)on3)n2nc1OCc1ccc2c(n1)CN(CCC#N)C2 [Embodiment 256, 3-(2-(((7-Methoxy-3-(5-methylisoxazol-3-yl)-[1,2,4]triazolo[4,3-b]pyridazin-6-yl)oxy)methyl)-5,7-dihydro-6H-pyrrolo[3,4-b]pyridin-6-yl)propanenitrile] | 40.2 |
| COc1cc2nnc(-c3cc(C)on3)n2nc1OCc1ccc(OCC2CCCO2)nn1 (stereo not drawn) [Embodiment 165] | 49.8 |
| COc1cc2nnc(-c3cc(C)on3)n2nc1OCc1ccc(C#N)cn1 [Embodiment 41] | 39.4 |
| COc1cc2nnc(-c3cc(C)on3)n2nc1OCc1ccc(C2CC2)cn1 [Embodiment 34] | 38 |
| COc1cc2nnc(-c3cc(C)on3)n2nc1OCc1ccc2c(n1)CCN(CC1CC1)C2 [Embodiment 82] | 47.9 |
| COc1cc2nnc(-c3cc(C)on3)n2nc1OCc1cnc(OC2CCOCC2)cn1 [Embodiment 177] | 56.5 |
| COc1cc2nnc(-c3cc(C)on3)n2nc1OCc1ccc(S(C)(=O)=O)cn1 [Embodiment 53] | 48.8 |
| COc1cc2nnc(-c3cc(C)on3)n2nc1OCc1ccc2c(ncn2C)n1 [Embodiment 118] | 63.7 |
